Data on 22 compounds can be found in ChEMBL document CHEMBL5550169, “A consensus reverse docking approach for identification of a competitive inhibitor of acetyltransferase enhanced intracellular survival protein from Mycobacterium tuberculosis” (Bioorg Med Chem, 2024).

Molecules are shown by their SMILES. ≈ marks a conversion by molar mass, not a printed value.

The subject of assay [1] is Mycobacterium tuberculosis. Nature of the assay: Antibacterial activity against Mycobacterium tuberculosis H37Ra measured after 7 days by resazurin reduction microplate assay. The note with it: 168 h, time 7 day. It counts as functional.
The test system of assay [2] is Mycobacterium tuberculosis. Kind of assay: Antibacterial activity against Mycobacterium tuberculosis H37Ra measured after 7 days in presence of isoniazid by resazurin reduction microplate assay based checkerboard assay. The assay is classed as functional. The following applies: 168 h, time 7 day. In general terms: The colour change of resazurin is a common sign of viable cells or microbes.

Assay [3] relates to Mycobacterium tuberculosis. Nature of the assay: Antibacterial activity against Mycobacterium tuberculosis H37Ra measured after 7 days in presence of rifampicin by resazurin reduction microplate assay based checkerboard assay. The assay is classed as functional. The following applies: 168 h, time 7 day.
In assay [4] the test system is Mycobacterium tuberculosis. Kind of assay: Antibacterial activity against Mycobacterium tuberculosis H37Ra measured after 7 days in presence of ethambutol by resazurin reduction microplate assay based checkerboard assay. The following applies: 168 h, time 7 day. The assay is classed as functional.
Assay [5] concerns Mycobacterium tuberculosis. Kind of assay: Antibacterial activity against Mycobacterium tuberculosis H37Ra measured after 7 days in presence of moxifloxacin by resazurin reduction microplate assay based checkerboard assay. It counts as functional. The following applies: 168 h, time 7 day.
Assay [6] deals with Mycobacterium tuberculosis. Kind of assay: Additive antibacterial activity against Mycobacterium tuberculosis H37Ra assessed as isoniazid MIC at 3 to 50 uM measured after 7 days by resazurin reduction microplate assay based checkerboard assay. The assay is classed as functional. The note with it: 168 h, dose 3-50 µM, time 7 day.
The subject of assay [7] is Mycobacterium tuberculosis. Kind of assay: Additive antibacterial activity against Mycobacterium tuberculosis H37Ra assessed as rifampicin MIC at 3 to 50 uM measured after 7 days by resazurin reduction microplate assay based checkerboard assay. It counts as functional. The following applies: 168 h, dose 3-50 µM, time 7 day.
The subject of assay [8] is Mycobacterium tuberculosis. Nature of the assay: Additive antibacterial activity against Mycobacterium tuberculosis H37Ra assessed as ethambutol MIC at 3 to 50 uM measured after 7 days by resazurin reduction microplate assay based checkerboard assay. The assay is classed as functional. The following applies: 168 h, dose 3-50 µM, time 7 day.
In assay [9] the test system is Mycobacterium tuberculosis. Kind of assay: Additive antibacterial activity against Mycobacterium tuberculosis H37Ra assessed as moxifloxacin MIC at 3 to 50 uM measured after 7 days by resazurin reduction microplate assay based checkerboard assay. It counts as functional. The note with it: 168 h, dose 3-50 µM, time 7 day.
Assay [10] has as its system Mycobacterium tuberculosis. Kind of assay: Additive antibacterial activity against Mycobacterium tuberculosis H37Ra assessed as fractional inhibitory concentration index at 3 to 50 uM measured after 7 days in presence of isoniazid by resazurin reduction microplate assay based checkerboard assay. The note with it: dose 3-50 µM; time 7 day. The assay is classed as functional.

Assay [11] deals with Mycobacterium tuberculosis. Nature of the assay: Additive antibacterial activity against Mycobacterium tuberculosis H37Ra assessed as fractional inhibitory concentration index at 3 to 50 uM measured after 7 days in presence of rifampicin by resazurin reduction microplate assay based checkerboard assay. The assay is classed as functional. The following applies: dose 3-50 µM; time 7 day.

Assay [12] deals with Mycobacterium tuberculosis. Nature of the assay: Additive antibacterial activity against Mycobacterium tuberculosis H37Ra assessed as fractional inhibitory concentration index at 3 to 50 uM measured after 7 days in presence of ethambutol by resazurin reduction microplate assay based checkerboard assay. The assay is classed as functional. The following applies: dose 3-50 µM; time 7 day.

Assay [13] relates to Mycobacterium tuberculosis. Kind of assay: Additive antibacterial activity against Mycobacterium tuberculosis H37Ra assessed as fractional inhibitory concentration index at 3 to 50 uM measured after 7 days in presence of moxifloxacin by resazurin reduction microplate assay based checkerboard assay. The assay is classed as functional. The following applies: dose 3-50 µM; time 7 day.

In assay [14] the target is T1, N-acetyltransferase Eis (Mycobacterium tuberculosis (strain ATCC 25618 / H37Rv), UniProt P9WFK7).
T1 sequence (P9WFK7 whole entry): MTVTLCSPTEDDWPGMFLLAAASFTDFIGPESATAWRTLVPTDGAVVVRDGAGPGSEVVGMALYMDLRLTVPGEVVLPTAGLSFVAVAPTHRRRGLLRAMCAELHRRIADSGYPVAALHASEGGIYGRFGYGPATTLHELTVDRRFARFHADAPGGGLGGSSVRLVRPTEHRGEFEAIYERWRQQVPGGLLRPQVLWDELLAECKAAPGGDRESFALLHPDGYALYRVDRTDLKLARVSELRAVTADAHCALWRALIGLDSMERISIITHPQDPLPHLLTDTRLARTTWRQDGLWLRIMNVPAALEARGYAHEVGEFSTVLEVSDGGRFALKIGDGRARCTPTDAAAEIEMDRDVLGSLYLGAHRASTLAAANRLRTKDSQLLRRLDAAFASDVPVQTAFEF
Kind of assay: Inhibition of Mycobacterium tuberculosis H37Rv Eis protein using kanamycin as substrate preincubated for 10 mins followed by AcCoA addition and measured every 30 secs for 30 mins.

The target of assay [15] is T1, N-acetyltransferase Eis. Nature of the assay: Competitive inhibition of Mycobacterium tuberculosis H37Rv Eis protein using varying concentrations of kanamycin as substrate assessed as inhibition constant by Lineweaver-Burk plot analysis.
Assay [16] concerns the target T2, N-acetyltransferase Eis (Mycobacterium tuberculosis (strain ATCC 25618 / H37Rv)) (UniProt P9WFK7).
T2 sequence (whole entry): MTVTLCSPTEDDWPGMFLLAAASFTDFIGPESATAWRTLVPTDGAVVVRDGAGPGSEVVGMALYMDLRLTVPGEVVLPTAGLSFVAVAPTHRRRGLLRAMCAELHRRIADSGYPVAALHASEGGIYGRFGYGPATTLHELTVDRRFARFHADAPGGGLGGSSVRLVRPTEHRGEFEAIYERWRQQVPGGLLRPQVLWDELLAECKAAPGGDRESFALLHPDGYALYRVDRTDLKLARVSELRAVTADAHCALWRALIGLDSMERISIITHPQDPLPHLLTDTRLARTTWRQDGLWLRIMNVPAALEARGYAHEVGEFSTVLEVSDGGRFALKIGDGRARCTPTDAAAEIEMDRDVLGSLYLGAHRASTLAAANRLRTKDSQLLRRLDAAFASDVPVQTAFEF
Kind of assay: Binding affinity to Mycobacterium tuberculosis H37Rv Eis protein assessed as gibbs free energy.

Assay [17] has as its system Mycobacterium tuberculosis. Kind of assay: Antibacterial activity against Mycobacterium tuberculosis H37Rv assessed as reduction in pellet formation measured after 7 to 14 days by alamar blue assay. It counts as functional. The following applies: time 7-14 day.
The test system of assay [18] is Mycobacterium tuberculosis. Nature of the assay: Antibacterial activity against Mycobacterium tuberculosis IAR2 assessed as reduction in pellet formation measured after 7 to 14 days by alamar blue assay. It counts as functional. The following applies: time 7-14 day.

For `N#C/C(=C\c1c[nH]c2ccccc12)C(=O)NCCN1CCCCC1`, the lowest concentration to inhibit growth in assay [1] (MIC) was 200 µM (≈ 64.5 µg/mL).

Take `C=CCn1c(SCC(=O)c2ccc(Cl)cc2)nc2sc3c(c2c1=O)CCCC3`: the MIC (as a rule, the smallest concentration in the dilution series that meets the test's criterion for growth inhibition) in [1] is more than 200 µM.

`O=C(CSc1nc2ccccc2c(=O)n1-c1ccccc1)c1ccc(Cl)cc1` showed an MIC in assay [1] of 200 µM (≈ 81.4 µg/mL).

With `O=C(CSc1nc2ccccc2c(=O)n1-c1ccccc1)c1ccccc1`, in assay [1], inhibition of growth (MIC) required 200 µM (≈ 74.5 µg/mL).

As for `N#CCC(=O)NC(=O)/C(C#N)=C/c1c[nH]c2ccccc12`, in assay [1], the MIC was more than 200 µM.

Take `N#C/C(=C\c1c[nH]c2ccccc12)C(=O)NCCc1ccccc1`: the minimum inhibitory concentration (MIC) in assay [1] is more than 200 µM.

For the compound `N#C/C(=C\c1c[nH]c2ccccc12)C(=O)N1CCOCC1`, in assay [1], the MIC is more than 200 µM.

As for `COc1c(N2C[C@@H]3CCCN[C@@H]3C2)c(F)cc2c(=O)c(C(=O)O)cn(C3CC3)c12` [MOXIFLOXACIN], the MIC in assay [1] stood at 0.2 µM (≈ 0.0803 µg/mL).

In turn, `COc1ccc(C(=O)CSc2nc3sc4c(c3c(=O)n2-c2ccccc2)CCCC4)cc1` displayed an MIC in assay [1] of more than 200 µM.

The compound `O=C(CSc1nc2sc3c(c2c(=O)n1Cc1ccccc1)CCCC3)c1cccc(O)c1` gave an MIC in [1] of 200 µM (≈ 92.5 µg/mL).

As for `COc1ccc(C(=O)CSc2nc3ccccc3c(=N)n2-c2ccccc2)cc1`, the minimum inhibitory concentration (MIC) in assay [1] worked out at 50 µM (≈ 20.1 µg/mL); in [2], 50 µM; in [3], 50 µM; in [4] it was 50 µM; in assay [5], 50 µM; in assay [6], 0.23 µM. For the same compound, the MIC in assay [7] came to 0.01 µM; in [8], 8 µM; in [9], 0.4 µM. The “fractional inhibitory concentration index (FICI)” value in assay [10] came to 2; in [11], 2; in assay [12], 2; in assay [13] it was 3. For the same compound, the midpoint of inhibition at N-acetyltransferase Eis [14], the IC50, lay at 11 µM. On N-acetyltransferase Eis [15], the Ki (commonly the equilibrium dissociation constant of an inhibitor or competing ligand from its target) turned out to be 14.4 µM. Moreover, the deltaG in assay [16] is -7.04 kcal/mol.

Regarding `C=CCn1c(SCC(=O)c2ccccc2)nc2sc3c(c2c1=O)CCCC3`, the minimum inhibitory concentration (MIC) in assay [1] is more than 200 µM.

In the case of `N#C/C(=C\c1c[nH]c2ccccc12)C(=O)NCCCc1ccccc1`, the MIC in assay [1] was more than 200 µM.

For the compound `N#C/C(=C\c1c[nH]c2cccc([N+](=O)[O-])c12)C(=O)NCCCc1ccccc1`, the MIC in assay [1] was more than 200 µM.

`CO[C@H]1/C=C/O[C@@]2(C)Oc3c(C)c(O)c4c(O)c(c(/C=N/N5CCN(C)CC5)c(O)c4c3C2=O)NC(=O)/C(C)=C\C=C\[C@H](C)[C@H](O)[C@@H](C)[C@@H](O)[C@@H](C)[C@H](OC(C)=O)[C@@H]1C` [RIFAMPIN] had an MIC in assay [1] of 0.01 µM (≈ 0.00823 µg/mL).

The compound `C=CCn1c(SCC(=O)c2ccc(Cl)cc2)nc2ccccc2c1=N` displayed an MIC in assay [1] of more than 200 µM.

With `Cc1ccc2[nH]cc(/C=C(\C#N)C(=O)NCCCc3ccccc3)c2c1`, the minimum inhibitory concentration (MIC) in assay [1] is more than 200 µM.

On to `CCOC(=O)/C(C#N)=C/c1c[nH]c2ccccc12`, for which, in assay [1], the MIC is more than 200 µM.

`N#C/C(=C\c1c[nH]c2ccccc12)C(=O)Nc1ccccc1` registered a minimum inhibitory concentration (MIC) in [1] of more than 200 µM.

As for `Cc1cc(C)c2c(C(=O)NC3CCCCC3)c[nH]c2c1`, the results for the MIC in [17] and in [18] were 4 ng/mL (≈ 0.0148 µM) and not below 250 ng/mL, respectively.

In the case of `N#C/C(=C\c1c[nH]c2ccccc12)C(=O)N1CCCC1`, the MIC in [1] was more than 200 µM.

On to `Cc1ccc(C(=O)CSc2nc3sc4c(c3c(=O)n2Cc2ccccc2)CCCC4)cc1`, for which the MIC in [1] was more than 200 µM.
